The structures appear in SMILES notation.

The experiment concerns the target T1, hLBAT (Homo sapiens, UniProt Q14973).
T1 construct: expressed in transfected cells; kept under Geneticin selection
T1 sequence (Q14973 1-349): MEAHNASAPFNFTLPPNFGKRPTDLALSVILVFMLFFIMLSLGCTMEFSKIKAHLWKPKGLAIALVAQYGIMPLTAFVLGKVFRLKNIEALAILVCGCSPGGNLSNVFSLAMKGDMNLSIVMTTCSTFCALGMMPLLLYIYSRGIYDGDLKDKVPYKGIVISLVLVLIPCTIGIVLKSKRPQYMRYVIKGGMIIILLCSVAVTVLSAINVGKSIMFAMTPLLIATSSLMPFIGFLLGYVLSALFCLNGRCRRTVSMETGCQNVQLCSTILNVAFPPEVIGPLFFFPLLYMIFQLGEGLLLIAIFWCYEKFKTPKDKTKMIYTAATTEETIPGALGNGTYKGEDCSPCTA
Nature of the experiment: LBAT (h/m) assay: 3H-taurocholic acid uptake in human LBAT-overexpressing cells. As to conditions: 0.3 μM 3H-taurocholic acid + 7.5 μM cold taurocholic acid, 20 minutes at 37° C. In kind it is cell-based. The essentials: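 Human or mouse LBAT-overexpressing cells given 10-point inhibitor series with 0.3 μM 3H-taurocholic acid plus cold taurocholic acid (7.5 μM human, 25 μM mouse), 0.2% DMSO, for 20 min at 37° C. Stopped on ice, washed with 1 mM unlabelled taurocholic acid; uptake measured by scintillation counting.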
The term IC50 denotes the concentration at which inhibition is half-maximal. In the case of `CCCCC1(CC)CN(c2ccccc2)c2cc(SC)c(CSCC(=O)O)cc2S(=O)(=O)C1` (single isomer, unassigned) [2, enantiomer 1], the half-maximal inhibitory concentration (IC50) was determined as 2.02 µM. Then `CCCCC1(C)CN(c2ccccc2)c2cc(SC)c(CSCC(=O)O)cc2S(=O)(=O)C1` (single isomer, unassigned) [5, enantiomer 1], with 6 µM; and `CCCCC1(CC)CN(c2ccc(F)cc2)c2cc(SC)c(CSCC(=O)O)cc2S(=O)(=O)C1` (single isomer, unassigned) [7, enantiomer 1], with 5.05 µM.

The values above are taken from patent US20240067617A1 (Albireo AB, priority 2022, published 2024).
